# Experimental data taken from ChEMBL document CHEMBL5728888, “Metallo-beta-lactamase inhibitors and methods of use thereof” (2021).
# Target: Metallo-beta-lactamase type 2 (Bacteria, UniProt C7C422)
# Assay: Enzyme Activity: Determination of IC50 : The Class B enzyme activities were measured in the presence of the test inhibitor in a fluorescence assay against a commercially available substrate consisting of a cephalosporin core linking 7-hydroxycoumarin to fluorescein (CCF2-FA). The enzyme (NDM-1, IMP-1 or VIM-1) and the substrate were diluted in 100 mM KH2PO4 buffer (pH 7) containing 0.005% Tween-20 and 10 μM ZnSO4. In the assay, the final concentration of enzyme was 1 pM, 2 pM and 30 pM for NDM-1, IMP-1 and VIM-1, respectively, and the final concentration of CCF2-FA was 1.25 μM. The test inhibitor was dissolved in dimethylsulfoxide and diluted 1:50 in the assay, resulting in a final concentration range of 20 μM to 0.00063 μM. In a 384-well microplate, the test inhibitor was incubated with the metallo-β-lactamase enzyme and the substrate for 2 hours at 25° C. Fluorescence at 460 nm following excitation at 405 nm was measured. The IC50 value was determined from semi-logarithmic plots of enzyme inhibition versus inhibitor concentration, with a curve generated using a 4-parameter fit.
# Chain of Metallo-beta-lactamase type 2 (C7C422 whole entry): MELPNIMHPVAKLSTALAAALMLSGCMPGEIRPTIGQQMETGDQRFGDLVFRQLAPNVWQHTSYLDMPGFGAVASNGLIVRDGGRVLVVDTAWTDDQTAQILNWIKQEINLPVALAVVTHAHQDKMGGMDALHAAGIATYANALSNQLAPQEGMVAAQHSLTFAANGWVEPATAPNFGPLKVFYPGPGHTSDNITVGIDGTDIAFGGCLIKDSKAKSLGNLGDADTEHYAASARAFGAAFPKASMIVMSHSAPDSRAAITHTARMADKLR
row,IC50 [nM],Compound
1,16.8,NC[C@@H](O)CNS(=O)(=O)c1ccc(N2CC[C@H](CN)C2)c(-c2nn[nH]n2)c1S(N)(=O)=O
2,19.2,NCC1CCN(c2ccc(S(=O)(=O)N[C@@H]3CCNC3)c(S(N)(=O)=O)c2-c2nn[nH]n2)CCN1 (stereo partly drawn)

row,Compound,IC50 [nM]
1,NC[C@@H](O)CNS(=O)(=O)c1ccc(Nc2ncc[nH]2)c(-c2nn[nH]n2)c1S(N)(=O)=O,10.8
